# Where “and” joins values, the source holds several entries; their conditions need not be identical. Equal entries are not always repeated. Where two headings read alike, the source gives them in different places.
# Molecular target: T1, human recombinant active HPK1 (Homo sapiens, UniProt Q92918)
# T1 construct: purchased Reaction Biology Corp., Malvern, PA, USA (contract assay)
# Assay: radiometric HotSpot kinase assay (33P-ATP, myelin basic protein substrate)
# Type: biochemical
# Settings: for inhibition at 25 µM: 25 µM compound; for inhibition at 25 µM / inhibition at 50 µM: duplicate; for inhibition at 50 µM: 50 µM compound
# Experimental: The in vitro inhibitory activity of the fifteen purchased compounds against recombinant human HPK1 was evaluated using a radiometric HotSpot^TM kinase assay. The results were expressed as a percentage of the remaining kinase activity relative to its activity in negative control reactions (DMSO). […] Six hits (ISR-03, ISR-04, ISR-05, ISR-10, ISR-13, and ISR-11) were selected for IC50 value determination.
# The selected compounds were purchased from ASINEX (ASINEX, Amsterdam, The Netherlands) and OTAVA lead-like (OTAVA Ltd., Vaughan, ON, Canada) via local vendors. […] In brief, this assay was performed by preparing the kinase substrate (myelin basic protein) with a concentration of 20 µM in freshly prepared base reaction buffer (20.0 mM Hepes (pH 7.5), 10.0 mM MgCl2, 1.0 mM EGTA, 0.01% Brij35, 0.02 mg/mL BSA, 0.1 mM Na3VO4, 2.0 mM DTT, and 1% DMSO). Then, the kinase enzyme was delivered into the substrate solution by gently mixing, followed by adding the tested compounds dissolved in 100% DMSO using the Echo550 liquid handler and incubated for 20 min at room temperature. Finally, the reaction was initiated by the addition of ^33P-γ-ATP with a concentration of 10.0 µM and incubated for 2 h at room temperature. The percentage of kinase activity was detected using the P81 filter-binding method. For IC50 determination, the compounds’ inhibitory activity was tested at 10 concentrations (100 µM, 33.3 µM, 11.10 µM, 3.70 µM, 1.23 µM, 0.412 µM, 0.137 µM, 45.70 nM, 15.20 nM, and 5.08 nM) in one independent experiment in duplicate mode and prepared using 3-fold serial dilutions. The percentage of remaining kinase activity in tested samples was determined first, and then Prism GraphPad software version 10.2.0 (nonlinear regression/variable slope) was used to obtain the IC50 values and curve fits.
# [1] = 10 concentrations, 3-fold dilution from 100 µM, 10 µM ATP, mean ± SD where given, read-out: IC50
# [2] = Prism fit table of single inhibition curve (A/B replicate), Figure 3, unit inferred, read-out: EC50 (the source's name)
# T1 sequence (Q92918 whole entry): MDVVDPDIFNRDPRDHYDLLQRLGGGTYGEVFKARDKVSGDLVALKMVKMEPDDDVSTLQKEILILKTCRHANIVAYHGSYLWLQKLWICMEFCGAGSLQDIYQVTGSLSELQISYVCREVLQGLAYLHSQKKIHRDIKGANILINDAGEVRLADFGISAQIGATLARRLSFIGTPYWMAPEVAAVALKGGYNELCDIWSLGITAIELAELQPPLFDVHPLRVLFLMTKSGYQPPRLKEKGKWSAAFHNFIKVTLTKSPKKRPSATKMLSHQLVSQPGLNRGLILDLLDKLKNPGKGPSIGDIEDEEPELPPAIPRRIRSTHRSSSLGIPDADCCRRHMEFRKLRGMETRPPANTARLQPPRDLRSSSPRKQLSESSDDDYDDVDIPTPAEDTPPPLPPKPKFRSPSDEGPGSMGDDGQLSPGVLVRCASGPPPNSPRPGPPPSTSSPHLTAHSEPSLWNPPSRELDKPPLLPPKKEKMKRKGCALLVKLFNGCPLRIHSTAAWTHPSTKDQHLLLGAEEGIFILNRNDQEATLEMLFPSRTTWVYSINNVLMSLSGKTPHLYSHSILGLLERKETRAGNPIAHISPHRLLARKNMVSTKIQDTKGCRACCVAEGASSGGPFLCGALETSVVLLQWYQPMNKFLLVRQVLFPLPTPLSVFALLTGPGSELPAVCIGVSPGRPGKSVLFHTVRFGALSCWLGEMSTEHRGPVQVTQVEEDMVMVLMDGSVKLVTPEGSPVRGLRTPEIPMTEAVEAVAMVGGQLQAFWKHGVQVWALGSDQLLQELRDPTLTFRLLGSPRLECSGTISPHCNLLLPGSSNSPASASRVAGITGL
inhibition at 25 µM (10 µM ATP) [%],inhibition at 50 µM (10 µM ATP) [%],IC50 [1] [µM],IC50 [2],SMILES
2.44,10.1,> 100,,CCCNC(=O)c1cc2c(=O)n3cccc(C)c3nc2s1 [ISR-04]
0,13.9,24.2,20.6 µM and 27.7 µM,Cc1cccn2c(=O)c3cc(C(=O)Nc4ccccc4C(N)=O)sc3nc12 [ISR-05]
26.6,52.4,43.9,44 µM and 43.8 µM,COc1ccc2[nH]c(=O)c(CNc3ccccc3NC(C)=O)cc2c1 [ISR-03]

# Reference: paper PMC12072202, “Identification of Novel HPK1 Hit Inhibitors: From In Silico Design to In Vitro Validation” (International Journal of Molecular Sciences, 2025)
